The results in this text go back to patent US20240067632A1, “WEE1 Degrading Compounds and Uses Thereof” (Bristol-Myers Squibb Company, priority 2022, published 2024).

One assay addresses T1, WEE1 (Homo sapiens, UniProt P30291+Q96SW2).
T1 construct: C-terminal ePL-tagged (DiscoverX, Fremont, CA) full-length WEE1 expression construct; expressed in transfected cells; host or cells: LentiX-HEK293T (Invitrogen), lentiviral transduction; co-expressing GSPT1-GN (G576N, lacking the first 158 amino acids)
The assay is described as follows: WEE1-ePL degradation assay (LentiX-WEE1-ePL-GSPT1-ND cells, InCELL Hunter luminescence, 4 h). In kind it is cell-based. The conditions noted are these: 293T-LentiX WEE1-ePL cells; for 293T-LentiX WEE1-ePL Degradation 4 hr (Ymin): lower limit of the fit (0 = luciferase inhibitor, Ymax = DMSO control); for DC50: read-out: 293T-LentiX WEE1-ePL Degradation 4 hr (EC50). In outline: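 Degradation EC50 was fitted by a four-parameter logistic model, with the upper limit taken from DMSO wells. Luminescence was read with InCELL Hunter reagent after 30 min at room temperature, following a 4 h, 37° C exposure of 2500 cells/well. Cells were LentiX-HEK293T carrying ePL-tagged full-length WEE1, dosed in 10 points (3-fold) from 1 or 10 uM.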

The subject of a further assay is MKN45 cells. Kind of assay: MKN45 cell proliferation assay (Cell-Titer-Glo, 120 h). In kind it is cell-based. The conditions noted are these: for EC50: Homo sapiens, MKN-45, 120 h, Cell-Titer-Glo, growth inhibition, read-out: MKN45 Cell Prolif. 120 hr (EC50); for MKN45 Cell Prolif. 120 hr (Ymin-Obs): minimal percent of DMSO control observed in the concentrations tested. In outline:
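Cells seeded at 400/well onto pre-printed 10-point half-log dilutions (top 1 or 10 uM, 0.1% DMSO final), in triplicate, and grown 120 h at 37 C. Viability by Cell-Titer-Glo luminescence, blank-subtracted and normalised to DMSO; EC50 from four-parameter logistic fit, with observed minimal % of control recorded as Ymin-obs.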

For orientation: EC50 means the concentration giving half of the maximal effect. In the case of `O=C1CCC(N2Cc3cc(O[C@H]4CCN(Cc5ccc6nc(CO[C@H]7CCOC7)ccc6c5)C4)ccc3C2=O)C(=O)N1` (stereo partly drawn) [3-(1-oxo-5-{[(3S)-1-[(2-{[(3S)-oxolan-3-yloxy]methyl}quinolin-6-yl)methyl]pyrrolidin-3-yl]oxy}-2,3-dihydro-1H-isoindol-2-yl)piperidine-2,6-dione], at WEE1, the “293T-LentiX WEE1-ePL Degradation 4 hr (Ymin)” value is recorded as 33 and the DC50 is 7.04 nM. In addition, in the assay on MKN45 cells, the EC50 is 3.12 nM and the “MKN45 Cell Prolif. 120 hr (Ymin-Obs)” value came out at 7.75.
The corresponding values for `O=C1CCC(N2Cc3cc(O[C@H]4CCN(Cc5ccc6c(c5)NC(=O)CO6)C4)ccc3C2=O)C(=O)N1` (stereo partly drawn) [3-(1-oxo-5-{[(3S)-1-[(3-oxo-3,4-dihydro-2H-1,4-benzoxazin-6-yl)methyl]pyrrolidin-3-yl]oxy}-2,3-dihydro-1H-isoindol-2-yl)piperidine-2,6-dione] are 70, 558 nM, > 10000 nM and 88.425.
For `O=C1CCC(N2Cc3cc(O[C@H]4CCN(Cc5cc(-c6ccccc6)ccn5)C4)ccc3C2=O)C(=O)N1` (stereo partly drawn) [3-(1-oxo-5-{[(3S)-1-[(4-phenylpyridin-2-yl)methyl]pyrrolidin-3-yl]oxy}-2,3-dihydro-1H-isoindol-2-yl)piperidine-2,6-dione] the same measures were 34.5, 5.3 nM, 16.7 nM and 8.59.
For `O=C1CCC(N2Cc3cc(O[C@H]4CCN(Cc5ccc(-c6ccccc6)cn5)C4)ccc3C2=O)C(=O)N1` (stereo partly drawn) [3-(1-oxo-5-{[(3S)-1-[(5-phenylpyridin-2-yl)methyl]pyrrolidin-3-yl]oxy}-2,3-dihydro-1H-isoindol-2-yl)piperidine-2,6-dione] the same measures were 46, 7.59 nM, 131 nM and 31.28.
With `O=C1CCC(N2Cc3cc(O[C@H]4CCN(Cc5cncc(-c6ccccc6)c5)C4)ccc3C2=O)C(=O)N1` (stereo partly drawn) [3-(1-oxo-5-{[(3S)-1-[(5-phenylpyridin-3-yl)methyl]pyrrolidin-3-yl]oxy}-2,3-dihydro-1H-isoindol-2-yl)piperidine-2,6-dione], on WEE1, the “293T-LentiX WEE1-ePL Degradation 4 hr (Ymin)” value was determined as 33 and the DC50 amounted to 2.17 nM. For the same molecule, in the assay with MKN45 cells, the EC50 stood at 8.4 nM and the “MKN45 Cell Prolif. 120 hr (Ymin-Obs)” value came to 7.52.
The corresponding values for `O=C1CCC(N2Cc3cc(O[C@H]4CCN(Cc5ccc6cnncc6c5)C4)ccc3C2=O)C(=O)N1` (stereo partly drawn) [3-(1-oxo-5-{[(3S)-1-[(phthalazin-6-yl)methyl]pyrrolidin-3-yl]oxy}-2,3-dihydro-1H-isoindol-2-yl)piperidine-2,6-dione] are 38, 148 nM, 883 nM and 16.7.
For the molecule `O=C1CCC(N2Cc3cc(O[C@H]4CCN(Cc5ncc6ccccc6n5)C4)ccc3C2=O)C(=O)N1` (stereo partly drawn) [3-(1-oxo-5-{[(3S)-1-[(quinazolin-2-yl)methyl]pyrrolidin-3-yl]oxy}-2,3-dihydro-1H-isoindol-2-yl)piperidine-2,6-dione], at WEE1, the “293T-LentiX WEE1-ePL Degradation 4 hr (Ymin)” value was 48.23 and the DC50 worked out at 51.9 nM. In the assay on MKN45 cells, the EC50 was 4770 nM and the “MKN45 Cell Prolif. 120 hr (Ymin-Obs)” value is 74.28.
As to `O=C1CCC(N2Cc3cc(O[C@H]4CCN(Cc5ccc6ncncc6c5)C4)ccc3C2=O)C(=O)N1` (stereo partly drawn) [3-(1-oxo-5-{[(3S)-1-[(quinazolin-6-yl)methyl]pyrrolidin-3-yl]oxy}-2,3-dihydro-1H-isoindol-2-yl)piperidine-2,6-dione], on WEE1, the “293T-LentiX WEE1-ePL Degradation 4 hr (Ymin)” value came out at 36.57 and the DC50 came to 57 nM. Also, in the assay with MKN45 cells, the EC50 came to 284 nM and the “MKN45 Cell Prolif. 120 hr (Ymin-Obs)” value turned out to be 20.44.
As for `O=C1CCC(N2Cc3cc(O[C@H]4CCN(Cc5ccc6ccccc6n5)C4)ccc3C2=O)C(=O)N1` (stereo partly drawn) [3-(1-oxo-5-{[(3S)-1-[(quinolin-2-yl)methyl]pyrrolidin-3-yl]oxy}-2,3-dihydro-1H-isoindol-2-yl)piperidine-2,6-dione], at WEE1, the “293T-LentiX WEE1-ePL Degradation 4 hr (Ymin)” value is 58 and the DC50 was found to be 25.6 nM. In the assay with MKN45 cells, the concentration giving a half-maximal response (EC50) was > 10000 nM and the “MKN45 Cell Prolif. 120 hr (Ymin-Obs)” value was found to be 81.45.
With `O=C1CCC(N2Cc3cc(O[C@H]4CCN(Cc5ccnc6ccccc56)C4)ccc3C2=O)C(=O)N1` (stereo partly drawn) [3-(1-oxo-5-{[(3S)-1-[(quinolin-4-yl)methyl]pyrrolidin-3-yl]oxy}-2,3-dihydro-1H-isoindol-2-yl)piperidine-2,6-dione], on WEE1, the “293T-LentiX WEE1-ePL Degradation 4 hr (Ymin)” value was 33.025 and the DC50 is 23.4 nM. In the assay with MKN45 cells, the EC50 is 56.8 nM and the “MKN45 Cell Prolif. 120 hr (Ymin-Obs)” value turned out to be 13.21.
With `O=C1CCC(N2Cc3cc(O[C@H]4CCN(Cc5cccc6ncccc56)C4)ccc3C2=O)C(=O)N1` (stereo partly drawn) [3-(1-oxo-5-{[(3S)-1-[(quinolin-5-yl)methyl]pyrrolidin-3-yl]oxy}-2,3-dihydro-1H-isoindol-2-yl)piperidine-2,6-dione], at WEE1, the “293T-LentiX WEE1-ePL Degradation 4 hr (Ymin)” value is on record as 32.69 and the DC50 came to 14.6 nM. For the same molecule, in the assay with MKN45 cells, the concentration giving a half-maximal response (EC50) amounted to 104 nM and the “MKN45 Cell Prolif. 120 hr (Ymin-Obs)” value amounted to 19.
Consider `O=C1CCC(N2Cc3cc(O[C@H]4CCN(Cc5ccc6ncccc6c5)C4)ccc3C2=O)C(=O)N1` (stereo partly drawn) [3-(1-oxo-5-{[(3S)-1-[(quinolin-6-yl)methyl]pyrrolidin-3-yl]oxy}-2,3-dihydro-1H-isoindol-2-yl)piperidine-2,6-dione], for which, at WEE1, the “293T-LentiX WEE1-ePL Degradation 4 hr (Ymin)” value came to 28.66 and the DC50 was determined as 3.45 nM. In the assay on MKN45 cells, the EC50 was 30.4 nM and the “MKN45 Cell Prolif. 120 hr (Ymin-Obs)” value turned out to be 14.87.
As for `O=C1CCC(N2Cc3cc(O[C@H]4CCN(Cc5ccc6cccnc6c5)C4)ccc3C2=O)C(=O)N1` (stereo partly drawn) [3-(1-oxo-5-{[(3S)-1-[(quinolin-7-yl)methyl]pyrrolidin-3-yl]oxy}-2,3-dihydro-1H-isoindol-2-yl)piperidine-2,6-dione], at WEE1, the “293T-LentiX WEE1-ePL Degradation 4 hr (Ymin)” value stood at 57 and the DC50 amounted to 30.1 nM. For the same molecule, in the assay on MKN45 cells, the concentration for a half-maximal effect (EC50) is > 10000 nM and the “MKN45 Cell Prolif. 120 hr (Ymin-Obs)” value was determined as 76.22.
Regarding `O=C1CCC(N2Cc3cc(O[C@H]4CCN(Cc5cnc6ccccc6n5)C4)ccc3C2=O)C(=O)N1` (stereo partly drawn) [3-(1-oxo-5-{[(3S)-1-[(quinoxalin-2-yl)methyl]pyrrolidin-3-yl]oxy}-2,3-dihydro-1H-isoindol-2-yl)piperidine-2,6-dione], on WEE1, the “293T-LentiX WEE1-ePL Degradation 4 hr (Ymin)” value was found to be 43.82 and the DC50 stood at 46.9 nM. In addition, in the assay on MKN45 cells, the EC50 was > 10000 nM and the “MKN45 Cell Prolif. 120 hr (Ymin-Obs)” value was 64.16.
With `O=C1CCC(N2Cc3cc(O[C@H]4CCN(Cc5ccc6nccnc6c5)C4)ccc3C2=O)C(=O)N1` (stereo partly drawn) [3-(1-oxo-5-{[(3S)-1-[(quinoxalin-6-yl)methyl]pyrrolidin-3-yl]oxy}-2,3-dihydro-1H-isoindol-2-yl)piperidine-2,6-dione], on WEE1, the “293T-LentiX WEE1-ePL Degradation 4 hr (Ymin)” value amounted to 43 and the DC50 was found to be 14.2 nM. Further, in the assay on MKN45 cells, the EC50 worked out at 879 nM and the “MKN45 Cell Prolif. 120 hr (Ymin-Obs)” value is recorded as 70.03.
For `O=C1CCC(N2Cc3cc(O[C@H]4CCN(Cc5cnn(-c6cccnc6)c5)C4)ccc3C2=O)C(=O)N1` (stereo partly drawn) [3-(1-oxo-5-{[(3S)-1-{[1-(pyridin-3-yl)-1H-pyrazol-4-yl]methyl}pyrrolidin-3-yl]oxy}-2,3-dihydro-1H-isoindol-2-yl)piperidine-2,6-dione], the “293T-LentiX WEE1-ePL Degradation 4 hr (Ymin)” value at WEE1 is 31.735. Also, in the assay on MKN45 cells, the EC50 was 269 nM and the “MKN45 Cell Prolif. 120 hr (Ymin-Obs)” value is on record as 11.53.
In the case of `O=C1CCC(N2Cc3cc(O[C@H]4CCN(Cc5ccc6nc(CC(F)(F)F)ccc6c5)C4)ccc3C2=O)C(=O)N1` (stereo partly drawn) [3-(1-oxo-5-{[(3S)-1-{[2-(2,2,2-trifluoroethyl)quinolin-6-yl]methyl}pyrrolidin-3-yl]oxy}-2,3-dihydro-1H-isoindol-2-yl)piperidine-2,6-dione], at WEE1, the “293T-LentiX WEE1-ePL Degradation 4 hr (Ymin)” value is on record as 33.67 and the DC50 was found to be 5.4 nM. In the assay with MKN45 cells, the half-maximal effective concentration (EC50) was 20.8 nM and the “MKN45 Cell Prolif. 120 hr (Ymin-Obs)” value stood at 13.32.
Regarding `O=C1CCC(N2Cc3cc(O[C@H]4CCN(Cc5ccc6nc(-n7ccccc7=O)ccc6c5)C4)ccc3C2=O)C(=O)N1` (stereo partly drawn) [3-(1-oxo-5-{[(3S)-1-{[2-(2-oxo-1,2-dihydropyridin-1-yl)quinolin-6-yl]methyl}pyrrolidin-3-yl]oxy}-2,3-dihydro-1H-isoindol-2-yl)piperidine-2,6-dione], at WEE1, the “293T-LentiX WEE1-ePL Degradation 4 hr (Ymin)” value worked out at 35 and the DC50 came to 2.27 nM. Also, in the assay on MKN45 cells, the EC50 stood at 1.93 nM and the “MKN45 Cell Prolif. 120 hr (Ymin-Obs)” value was found to be 8.805.
For `O=C1CCC(N2Cc3cc(O[C@H]4CCN(Cc5ccc6nc(N7CCCCC7=O)ccc6c5)C4)ccc3C2=O)C(=O)N1` (stereo partly drawn) [3-(1-oxo-5-{[(3S)-1-{[2-(2-oxopiperidin-1-yl)quinolin-6-yl]methyl}pyrrolidin-3-yl]oxy}-2,3-dihydro-1H-isoindol-2-yl)piperidine-2,6-dione] the same measures were 31.5, 1.73 nM, 0.959 nM and 7.56.
